Laboratory results taken from patent US10538555B2, “Macrocyclic inhibitors of the PD-1/PD-L1 and CD80(B7-1)/PD-L1 protein/protein interactions” (BRISTOL-MYERS SQUIBB COMPANY, priority 2014, dated 2020).
Read-outs that look alike come from different tables or passages of the source. *1 amine or outer side, *2 acyl side, *3 side chain or, on linkers, in order; H or OH if unused. Where a SMILES comes first, the peptide text is derived from it. Bridges are numbered along the chain shown (N, C = ends). [ ]: non-standard residue; d: D form. ξ: configuration not given here. Trp(1-CH2COOH) = N[C@@H](Cc1cn(CC(=O)O)c2ccccc12)C(=O)O; Phe(4-NO2) = N[C@@H](Cc1ccc([N+](=O)[O-])cc1)C(=O)O; Phe(3,4,5-F3) = N[C@@H](Cc1cc(F)c(F)c(F)c1)C(=O)O; Phe(3,4-F2) = N[C@@H](Cc1ccc(F)c(F)c1)C(=O)O; X6 = NC(=O)CCC(=O)[C@H](CSCC(=O)[*:2])N[*:1]; Trp(1-Me) = Cn1cc(C[C@H](N)C(=O)O)c2ccccc21; d(cisHyp) = O=C(O)[C@H]1C[C@@H](O)CN1; Bta = N[C@@H](Cc1csc2ccccc12)C(=O)O; NMeY = CN[C@@H](Cc1ccc(O)cc1)C(=O)O; Hyp = O=C(O)[C@@H]1C[C@@H](O)CN1; NMeF = CN[C@@H](Cc1ccccc1)C(=O)O; X1 = O=C([C@H]1COCCN1[*:1])[*:2]; dNMeF = CN[C@H](Cc1ccccc1)C(=O)O; dHyp = O=C(O)[C@H]1C[C@H](O)CN1; NMehSer = CN[C@@H](CCO)C(=O)O; NMeNle = CCCC[C@H](NC)C(=O)O; NMeS = CN[C@@H](CO)C(=O)O; Pip = O=C(O)[C@@H]1CCCCN1; dPip = O=C(O)[C@H]1CCCCN1; NMeA = CN[C@@H](C)C(=O)O; Orn = NCCC[C@H](N)C(=O)O; dNMeA = CN[C@H](C)C(=O)O; Dab = NCC[C@H](N)C(=O)O; Dap = NC[C@H](N)C(=O)O; ξC = NC(CS)C(=O)O; Sar = CNCC(=O)O

Target: T1, Human PD-L1/PD-1 (Homo sapiens, UniProt Q9NZQ7)
T1 construct: TVMV protease cleavage site (C); made in house; host or cells: HEK293T cells
T1 sequence (Q9NZQ7 with tags, fused parts or gaps): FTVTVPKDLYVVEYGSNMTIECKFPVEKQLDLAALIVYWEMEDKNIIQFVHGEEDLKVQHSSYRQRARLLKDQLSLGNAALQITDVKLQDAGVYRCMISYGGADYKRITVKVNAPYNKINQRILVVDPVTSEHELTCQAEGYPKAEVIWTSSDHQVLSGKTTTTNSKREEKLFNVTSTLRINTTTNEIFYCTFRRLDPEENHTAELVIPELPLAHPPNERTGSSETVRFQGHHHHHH
Assay: HTRF Human PD-L1/PD-1 binding assay (PD-1-Ig/PD-L1-His)
Conditions: PD-L1-His 10 nM, PD-1-Ig 20 nM
How it was run: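 Step 1: compound with PD-L1-His (10 nM final), 15 min. Step 2: PD-1-Ig (20 nM final), 15 min. Step 3: Eu-cryptate anti-Ig (1 nM) plus APC anti-His (20 nM), 30 min equilibration. Signal taken as 665 nm/620 nm ratio.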

[1] = class symbol, read-out: HTRF Human PD-L1/PD-1 Binding Assay IC50 Range

Row | Compound | IC50 [1] [nM] | IC50 (read-out: HTRF Human PD-L1/PD-1 Binding Assay IC50) [nM]
1 | CCCC[C@H]1C(=O)N2CCC[C@@H]2C(=O)N[C@@H](CC(=O)O)C(=O)N[C@@H](C(C)C)C(=O)N(C)[C@@H](Cc2ccccc2)C(=O)N[C@@H](CC(=O)O)C(=O)N2CCC[C@@H]2C(=O)N[C@@H](Cc2c[nH]c3ccccc23)C(=O)N[C@@H](Cc2ccc(O)cc2)C(=O)N[C@@H](CCCCN)C(=O)N[C@H](C(=O)NCC(N)=O)CSCC(=O)N[C@@H](Cc2cc(F)c(F)c(F)c2)C(=O)N(C)[C@@H](Cc2ccccc2)C(=O)N1C [Example 10171] ({CH2CO}-[Phe(3,4,5-F3)][NMeF][NMeNle][dP]DV[NMeF]D[dP]WYKCG-NH2; thioether N-13) | 10 to 99.9 | 
2 | CCCC[C@H]1C(=O)N2C[C@H](O)C[C@@H]2C(=O)N[C@@H](CC(=O)O)C(=O)N[C@@H](C(C)C)C(=O)N(C)[C@@H](Cc2ccccc2)C(=O)N[C@@H](CC(=O)O)C(=O)N2C[C@H](O)C[C@@H]2C(=O)N[C@@H](Cc2c[nH]c3ccccc23)C(=O)N[C@@H](Cc2ccc(O)cc2)C(=O)N[C@@H](CCN)C(=O)N[C@H](C(=O)NCC(N)=O)CSCC(=O)N[C@@H](Cc2cc(F)c(F)c(F)c2)C(=O)N(C)[C@@H](Cc2ccccc2)C(=O)N1C [Example 9347] ({CH2CO}-[Phe(3,4,5-F3)][NMeF][NMeNle][d(cisHyp)]DV[NMeF]D[d(cisHyp)]WY[Dab]CG-NH2; thioether N-13) |  | 10.9
3 | CCCC[C@H]1C(=O)N(C)[C@@H](CCCC)C(=O)N[C@@H](CCN)C(=O)NC(C(=O)NCC(N)=O)CSCC(=O)N[C@@H](Cc2ccc(O)cc2)C(=O)N(C)[C@@H](C)C(=O)N[C@@H](CC(N)=O)C(=O)N2CCC[C@H]2C(=O)N[C@@H](CC(N)=O)C(=O)N[C@@H](CC(C)C)C(=O)N2CCC[C@H]2C(=O)N[C@@H](Cc2c[nH]c3ccccc23)C(=O)N[C@@H](CO)C(=O)N[C@@H](Cc2c[nH]c3ccccc23)C(=O)N1C (stereo partly drawn) [Example 9162] ({CH2CO}-Y[NMeA]NPNLPWSW[NMeNle][NMeNle][Dab][ξC]G-NH2; thioether N-14) | 1 to 9.9 | 
4 | CCCC[C@H]1C(=O)N(C)[C@@H](CCCC)C(=O)N[C@@H](CC(C)C)C(=O)NC(C(=O)NCC(N)=O)CSCC(=O)N[C@@H](Cc2ccc(O)cc2)C(=O)N(C)[C@@H](C)C(=O)N[C@@H](CC(N)=O)C(=O)N2CCC[C@H]2C(=O)N[C@@H](CC(N)=O)C(=O)N[C@@H](CC(C)C)C(=O)N2CCC[C@H]2C(=O)N[C@@H](Cc2c[nH]c3ccccc23)C(=O)N[C@@H](CO)C(=O)N[C@@H](Cc2c[nH]c3ccccc23)C(=O)N1C (stereo partly drawn) [Example 9161] ({CH2CO}-Y[NMeA]NPNLPWSW[NMeNle][NMeNle]L[ξC]G-NH2; thioether N-14) | 1 to 9.9 | 
5 | CCCC[C@H]1C(=O)N2C[C@H](O)C[C@@H]2C(=O)N2C[C@H](O)C[C@H]2C(=O)N[C@@H](C(C)C)C(=O)N(C)[C@@H](Cc2ccccc2)C(=O)N[C@@H](CCC(=O)O)C(=O)N2CCCC[C@@H]2C(=O)N[C@@H](Cc2c[nH]c3ccccc23)C(=O)N[C@@H](Cc2ccc(O)cc2)C(=O)N[C@@H](CCCN)C(=O)N[C@H](C(=O)NCC(N)=O)CSCC(=O)N[C@@H](Cc2cc(F)c(F)c(F)c2)C(=O)N(C)[C@@H](Cc2ccccc2)C(=O)N1C [Example 3228] ({CH2CO}-[Phe(3,4,5-F3)][NMeF][NMeNle][d(cisHyp)][Hyp]V[NMeF]E[dPip]WY[Orn]CG-NH2; thioether N-13) | 10 to 99.9 | 
6 | CCCC[C@H]1C(=O)N(C)[C@@H](CCCC)C(=O)N[C@@H](CC(C)C)C(=O)NC(C(=O)NCC(N)=O)CSCC(=O)N[C@@H](Cc2ccc(O)cc2)C(=O)N(C)[C@@H](C)C(=O)N[C@@H](CC(N)=O)C(=O)N2CCC[C@H]2C(=O)N[C@@H](CC(N)=O)C(=O)N[C@@H](CC(C)C)C(=O)N2CCC[C@H]2C(=O)N[C@@H](Cc2csc3ccccc23)C(=O)N[C@@H](CO)C(=O)N[C@@H](Cc2c[nH]c3ccccc23)C(=O)N1C (stereo partly drawn) [Example 9160] ({CH2CO}-Y[NMeA]NPNLP[Bta]SW[NMeNle][NMeNle]L[ξC]G-NH2; thioether N-14) | 10 to 99.9 | 
7 | CCCC[C@H]1C(=O)N(C)[C@@H](CO)C(=O)N[C@@H](CCC(=O)O)C(=O)N[C@H](C(=O)NCC(N)=O)CSCC(=O)N[C@@H](Cc2ccc(O)cc2)C(=O)N2CCCC[C@H]2C(=O)N[C@@H](CC(=O)O)C(=O)N2CCC[C@H]2C(=O)N[C@@H](CN)C(=O)N[C@@H](CCC(=O)O)C(=O)N2C[C@H](O)C[C@H]2C(=O)N[C@@H](Cc2c[nH]c3ccccc23)C(=O)N[C@@H](CO)C(=O)N[C@@H](Cc2c[nH]c3ccccc23)C(=O)N1C [Example 1309] ({CH2CO}-Y[Pip]DP[Dap]E[Hyp]WSW[NMeNle][NMeS]ECG-NH2; thioether N-14) | 10 to 99.9 | 
8 | CCCC[C@H]1C(=O)N2C[C@H](O)C[C@@H]2C(=O)N[C@@H](CC(=O)O)C(=O)N[C@@H](C(C)C)C(=O)N(C)[C@@H](Cc2ccccc2)C(=O)N[C@@H](CCC(N)=O)C(=O)N2C[C@H](O)C[C@@H]2C(=O)N[C@@H](Cc2c[nH]c3ccccc23)C(=O)N[C@@H](Cc2ccc(O)cc2)C(=O)N[C@@H](CCN)C(=O)N[C@H](C(=O)NCC(N)=O)CSCC(=O)N[C@@H](Cc2cc(F)c(F)c(F)c2)C(=O)N(C)[C@@H](Cc2ccccc2)C(=O)N1C [Example 9355] ({CH2CO}-[Phe(3,4,5-F3)][NMeF][NMeNle][d(cisHyp)]DV[NMeF]Q[d(cisHyp)]WY[Dab]CG-NH2; thioether N-13) | 1 to 9.9 | 
9 | CCCC[C@H]1C(=O)N2C[C@@H](O)C[C@@H]2C(=O)N[C@@H](CC(=O)O)C(=O)N[C@@H](C(C)C)C(=O)N(C)[C@@H](Cc2ccccc2)C(=O)N[C@@H](CCC(=O)O)C(=O)N2CCOC[C@@H]2C(=O)N[C@@H](Cc2cn(CC(=O)O)c3ccccc23)C(=O)N[C@@H](Cc2ccc(O)cc2)C(=O)N[C@@H](CCN)C(=O)N[C@H](C(=O)CCC(N)=O)CSCC(=O)N[C@@H](Cc2cc(F)c(F)c(F)c2)C(=O)N(C)[C@@H](Cc2ccccc2)C(=O)N1C [Example 9271] (cyclo(DV[NMeF]E[X1][Trp(1-CH2COOH)]Y[Dab][X6][Phe(3,4,5-F3)][NMeF][NMeNle][dHyp])) | 1 to 9.9 | 
10 | COCC[C@H]1C(=O)N2C[C@@H](O)C[C@@H]2C(=O)N[C@@H](CC(=O)O)C(=O)N[C@@H](C(C)C)C(=O)N(C)[C@H](Cc2ccccc2)C(=O)N[C@@H](Cc2ccc(O)cc2)C(=O)N2C[C@@H](O)C[C@@H]2C(=O)N[C@@H](Cc2c[nH]c3ccccc23)C(=O)N[C@@H](Cc2ccc(O)cc2)C(=O)N[C@@H](CC(C)C)C(=O)N[C@H](C(=O)NCC(N)=O)CSCC(=O)N[C@@H](Cc2ccc(F)c(F)c2)C(=O)N(C)[C@@H](Cc2ccccc2)C(=O)N1C [Example 9234] ({CH2CO}-[Phe(3,4-F2)][NMeF][NMehSer](Me)[dHyp]DV[dNMeF]Y[dHyp]WYLCG-NH2; thioether N-13) | 1 to 9.9 | 
11 | CCCC[C@H]1C(=O)N(C)[C@@H](CCCC)C(=O)N[C@@H](C)C(=O)N[C@H](C(=O)NCC(N)=O)CSCC(=O)N[C@@H](Cc2ccc(O)cc2)C(=O)N2CCCC[C@H]2C(=O)N[C@@H](CC(=O)O)C(=O)N2CCC[C@H]2C(=O)N[C@@H](Cc2cnc[nH]2)C(=O)N[C@@H](CCC(N)=O)C(=O)N2C[C@H](O)C[C@H]2C(=O)N[C@@H](Cc2c[nH]c3ccccc23)C(=O)N[C@@H](CO)C(=O)N[C@@H](Cc2cn(C)c3ccccc23)C(=O)N1C [Example 1502] ({CH2CO}-Y[Pip]DPHQ[Hyp]WS[Trp(1-Me)][NMeNle][NMeNle]ACG-NH2; thioether N-14) | 10 to 99.9 | 
12 | CCCC[C@H]1C(=O)N2C[C@H](O)C[C@@H]2C(=O)N[C@@H](CC(=O)O)C(=O)N[C@@H](C(C)C)C(=O)N(C)[C@@H](Cc2ccccc2)C(=O)N[C@@H](CCCCN)C(=O)N2C[C@H](O)C[C@@H]2C(=O)N[C@@H](Cc2c[nH]c3ccccc23)C(=O)N[C@@H](Cc2ccc(O)cc2)C(=O)N[C@@H](CC(C)C)C(=O)N[C@H](C(=O)NCC(N)=O)CSCC(=O)N[C@@H](Cc2ccc(F)c(F)c2)C(=O)N(C)[C@@H](Cc2ccccc2)C(=O)N1C [Example 9318] ({CH2CO}-[Phe(3,4-F2)][NMeF][NMeNle][d(cisHyp)]DV[NMeF]K[d(cisHyp)]WYLCG-NH2; thioether N-13) | 1 to 9.9 | 
13 | CC(C)[C@@H]1NC(=O)[C@H](CCC(=O)O)NC(=O)[C@@H](C)N(C)C(=O)[C@H](C)N(C)C(=O)[C@H](Cc2ccccc2)N(C)C(=O)[C@H](Cc2cc(F)c(F)c(F)c2)NC(=O)CSC[C@@H](C(=O)NCC(N)=O)NC(=O)[C@H](CCCN)NC(=O)[C@H](Cc2ccc(O)cc2)NC(=O)[C@H](Cc2c[nH]c3ccccc23)NC(=O)[C@@H](C)N(C)C(=O)[C@H](Cc2ccc(O)cc2)NC(=O)[C@H](Cc2ccccc2)N(C)C1=O [Example 9194] ({CH2CO}-[Phe(3,4,5-F3)][NMeF][NMeA][dNMeA]EV[NMeF]Y[dNMeA]WY[Orn]CG-NH2; thioether N-13) | 1 to 9.9 | 
14 | CCCC[C@H]1C(=O)N(C)CC(=O)N[C@@H](CC(=O)O)C(=O)N[C@@H](C(C)C)C(=O)N(C)[C@@H](Cc2ccccc2)C(=O)N[C@@H](Cc2ccc(O)cc2)C(=O)N(C)CC(=O)N[C@@H](Cc2c[nH]c3ccccc23)C(=O)N[C@@H](Cc2ccc(O)cc2)C(=O)N[C@@H](CC(C)C)C(=O)N[C@H](C(=O)NCC(N)=O)CSCC(=O)N[C@@H](Cc2ccc([N+](=O)[O-])cc2)C(=O)N(C)[C@@H](Cc2ccccc2)C(=O)N1C [Example 3244] ({CH2CO}-[Phe(4-NO2)][NMeF][NMeNle][Sar]DV[NMeF]Y[Sar]WYLCG-NH2; thioether N-13) | 10 to 99.9 | 
15 | CCCC[C@H]1C(=O)N2CCC[C@@H]2C(=O)N[C@@H](CC(=O)O)C(=O)N[C@@H](C(C)C)C(=O)N(C)[C@@H](Cc2ccccc2)C(=O)N[C@@H](CCC(=O)O)C(=O)N2CCCC[C@@H]2C(=O)N[C@@H](Cc2c[nH]c3ccccc23)C(=O)N[C@@H](Cc2ccc(O)cc2)C(=O)N[C@@H](CCN)C(=O)N[C@H](C(=O)NCC(N)=O)CSCC(=O)N[C@@H](Cc2cc(F)c(F)c(F)c2)C(=O)N(C)[C@@H](Cc2ccc(O)cc2)C(=O)N1C [Example 10600] ({CH2CO}-[Phe(3,4,5-F3)][NMeY][NMeNle][dP]DV[NMeF]E[dPip]WY[Dab]CG-NH2; thioether N-13) | 1 to 9.9 | 
